{"source": "patent US7524510B2", "about": "“Alkyl-glycoside enhanced vaccination” (The UAB Research Foundation, priority 2005, dated 2009)", "key": {"[1]": {"system": "mice", "test": "Enhancement of potency of E. coli-vectored epicutaneous vaccine, co-administered without ablation of the stratum corneum", "format": "in vivo, mouse", "details": "topical E. coli vector expressing tetC mixed with TDM, skin not ablated by brushing, sera 2 months postimmunization", "description": "Preliminary tests of the ability of tetradecyl-β-D maltoside (purchased from Anatrace) to enhance the potency of an E. coli-vectored epicutaneous vaccine when co-administered without ablation of the stratum corneum were conducted. Specifically, mice were immunized by topical application of an E. coli vector expressing tetC mixed with TDM at the indicated concentration and sera were analyzed 2 months postimmunization."}, "[2]": {"system": "Mouse skin", "test": "Permeabilization of stratum corneum, electron microscopy of cutaneous architecture", "format": "in vivo", "details": "mouse skin ablated by mechanical brushing, topical TDM incubated 15 min with naked skin", "description": "Mouse skin was ablated by mechanical brushing prior to topical application of TDM, followed by incubation of TDM at the indicated concentration with naked skin for 15 min, followed by examination of the cutaneous architecture under an electron microscope."}, "[3]": {"system": "mice", "test": "Enhancement of potency of adenovirus-vectored epicutaneous vaccine, co-administered without ablation of the stratum corneum", "format": "in vivo, mouse", "details": "topical adenovirus vector expressing tetC mixed with TDM, no ablation of stratum corneum, sera 1 month postimmunization", "description": "Tests of the ability of TDM to enhance the potency of an adenovirus-vectored epicutaneous vaccine when co-administered without ablation of the stratum comeum were also conducted. Here, mice were immunized by topical application of an adenovirus vector expressing tetC mixed with TDM at the indicated concentration, and sera were analyzed 1 month postimmunization."}}}
{"compound": "CCCCCCCCCCCCCCO[C@@H]1O[C@H](CO)[C@@H](O[C@H]2O[C@H](CO)[C@@H](O)[C@H](O)[C@H]2O)[C@H](O)[C@H]1O", "note": "[TDM, tetradecyl-β-D-maltoside]", "values": [{"measurement": "enhancement of the potency of an E. coli-vectored epicutaneous vaccine (sera analyzed)", "setting": "[1]", "value": "No increase over the control"}, {"measurement": "effect on stratum corneum (cutaneous architecture under electron microscope)", "setting": "[2]", "value": "permeablization of the stratum comeum"}, {"measurement": "enhancement of the potency of an adenovirus-vectored epicutaneous vaccine (sera analyzed)", "setting": "[3]", "value": "No significant increase over the control"}]}
